The values below come from article PMC6934184, “Selective DNA-PKcs inhibition extends the therapeutic index of localized radiotherapy and chemotherapy” (The Journal of Clinical Investigation, 2019).

The target in the assay is T1, PRKG1 (Homo sapiens, UniProt Q13976).
T1 construct: purchased Thermo Fisher Scientific (Life Technologies) SelectScreen
The experiment in a line: SelectScreen Z'LYTE. Type of assay: biochemical. In a few lines: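 NU5455 was profiled across the SelectScreen Broad panel of kinase activity and binding assays. Z'LYTE reactions such as CSF1R ran at apparent Km ATP, while the Adapta CAMK1 assay used ATP listed as 10. Values are given as percent.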

T1 sequence (Q13976 whole entry): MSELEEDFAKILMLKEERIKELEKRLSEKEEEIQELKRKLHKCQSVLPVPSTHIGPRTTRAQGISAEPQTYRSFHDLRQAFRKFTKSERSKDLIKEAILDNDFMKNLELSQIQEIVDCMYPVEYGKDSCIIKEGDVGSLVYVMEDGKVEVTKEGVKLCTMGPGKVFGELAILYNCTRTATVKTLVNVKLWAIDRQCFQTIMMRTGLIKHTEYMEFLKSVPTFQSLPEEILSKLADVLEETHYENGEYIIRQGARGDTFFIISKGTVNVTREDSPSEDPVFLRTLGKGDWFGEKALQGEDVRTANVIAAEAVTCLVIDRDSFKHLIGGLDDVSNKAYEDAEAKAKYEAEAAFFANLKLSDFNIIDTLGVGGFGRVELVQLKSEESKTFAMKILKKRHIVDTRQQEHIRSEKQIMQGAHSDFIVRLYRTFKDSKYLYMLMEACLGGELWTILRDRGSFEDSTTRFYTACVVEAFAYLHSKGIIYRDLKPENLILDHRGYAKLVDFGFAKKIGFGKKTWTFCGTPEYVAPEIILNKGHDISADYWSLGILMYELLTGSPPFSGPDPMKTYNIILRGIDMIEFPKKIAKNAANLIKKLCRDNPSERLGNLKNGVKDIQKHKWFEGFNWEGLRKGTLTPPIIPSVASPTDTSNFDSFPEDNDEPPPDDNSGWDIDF

Broadly, the inhibition is the relative decrease from the control value, in per cent. As to `CN(C(=O)CN1CCOCC1)c1ccc2sc3c(-c4cccc5c(=O)cc(N6CC7CCC(C6)O7)oc45)cccc3c2c1` [NU5455], the inhibition at 1 µM is -2.7%.
